Results reported in US9108944B2, “Androgen receptor modulators and uses thereof” (ARAGON PHARMACEUTICALS, INC., priority 2010, dated 2015).

Key:
AR-VP16 [1] = target: T1, AR-VP16 (Homo sapiens, UniProt P10275); assay: AR-VP16 DNA Binding Assay, agonist mode (HepG2 cells); type: cell-based; conditions: Emax >20x DMSO control = agonist
T1 sequence (P10275 560-920 limits assumed): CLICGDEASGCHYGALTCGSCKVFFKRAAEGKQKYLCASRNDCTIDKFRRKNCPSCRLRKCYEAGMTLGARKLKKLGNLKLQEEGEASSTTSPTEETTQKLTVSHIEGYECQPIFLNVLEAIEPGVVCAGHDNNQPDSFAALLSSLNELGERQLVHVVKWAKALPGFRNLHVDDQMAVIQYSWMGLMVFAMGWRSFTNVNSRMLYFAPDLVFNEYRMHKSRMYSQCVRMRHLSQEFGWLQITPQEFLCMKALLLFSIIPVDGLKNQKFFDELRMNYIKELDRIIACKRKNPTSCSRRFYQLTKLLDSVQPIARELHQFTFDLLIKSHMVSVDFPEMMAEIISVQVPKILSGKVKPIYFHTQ

AR-VP16 [2] = target: T1, AR-VP16; assay: AR-VP16 DNA Binding Assay, antagonist mode (HepG2 cells, 0.1 nM R1881); type: cell-based
How it was run: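 HepG2 cells transiently transfected with AR-VP16 (Lipofectin), incubated overnight, then treated with compound in RPMI with charcoal-stripped serum. Antagonist mode adds R1881 at 0.1 nM final. Cells lysed after 48 h incubation for read-out.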

Row | SMILES | ARVP16 DNA Binding Assay (Agonist mode): Agonist? (AR-VP16 [1]) | IC50 (AR-VP16 [2]) [nM]
1 | CN1CCN(c2ccc(N3C(=S)N(c4cnc(C#N)c(C(F)(F)F)c4)C(=O)C34CCC4)cc2)CC1 [Compound 90, 5-(5-(4-(4-Methylpiperazin-1-yl)phenyl)-8-oxo-6-thioxo-5,7-diazaspiro[3.4]octan-7-yl)-3-(trifluoromethyl)picolinonitrile] | No (Agonist defined as a compound whose Emax in the ARVP16 DNA Binding Assay (Agonist mode) is >20x DMSO control) | > 1000
2 | N#Cc1ncc(N2C(=O)C3(CCC3)N(c3ccc(OCCCN4CCOCC4)c(F)c3)C2=S)cc1C(F)(F)F [Compound 150, 5-(5-(3-Fluoro-4-(3-morpholinopropoxy)phenyl)-8-oxo-6-thioxo-5,7-diazaspiro[3.4]octan-7-yl)-3-(trifluoromethyl)picolinonitrile] | Yes (Agonist defined as a compound whose Emax in the ARVP16 DNA Binding Assay (Agonist mode) is >20x DMSO control) | < 1000
3 | Cc1cc(N2C(=O)C3(CCC3)N(c3ccc4c(c3)CNC4=O)C2=S)cnc1C#N [Compound 111, 3-Methyl-5-(8-oxo-5-(1-oxoisoindolin-5-yl)-6-thioxo-5,7-diazaspiro[3.4]octan-7-yl)picolinonitrile] | No (Agonist defined as a compound whose Emax in the ARVP16 DNA Binding Assay (Agonist mode) is >20x DMSO control) | > 1000
4 | N#Cc1ncc(N2C(=O)C3(CCC3)N(c3ccc(F)c(C(=O)O)c3)C2=S)cc1C(F)(F)F [Compound 226, 5-(7-(6-Cyano-5-(trifluoromethyl)pyridin-3-yl)-8-oxo-6-thioxo-5,7-diazaspiro[3.4]octan-5-yl)-2-fluorobenzoic acid] | No (Agonist defined as a compound whose Emax in the ARVP16 DNA Binding Assay (Agonist mode) is >20x DMSO control) | > 1000
5 | N#Cc1ncc(N2C(=O)C3(CCC3)N(c3c(F)cccc3F)C2=S)cc1C(F)(F)F [Compound 73, 5-(5-(2,6-Difluorophenyl)-8-oxo-6-thioxo-5,7-diazaspiro[3.4]octan-7-yl)-3-(trifluoromethyl)picolinonitrile] | Yes (Agonist defined as a compound whose Emax in the ARVP16 DNA Binding Assay (Agonist mode) is >20x DMSO control) | < 1000
6 | CCN1CCC(Oc2ccc(N3C(=S)N(c4cnc(C#N)c(C)c4)C(=O)C34CCC4)cc2)CC1 [Compound 216, 5-(5-(4-((1-Ethylpiperidin-4-yl)oxy)phenyl)-8-oxo-6-thioxo-5,7-diazaspiro[3.4]octan-7-yl)-3-methylpicolinonitrile] | No (Agonist defined as a compound whose Emax in the ARVP16 DNA Binding Assay (Agonist mode) is >20x DMSO control) | > 1000
7 | Cc1cc(N2C(=O)C3(CCC3)N(c3ccc(C(=O)Nc4ccn(C)n4)c(F)c3)C2=S)cnc1C#N [Compound 303, 4-(7-(6-Cyano-5-methylpyridin-3-yl)-8-oxo-6-thioxo-5,7-diazaspiro[3.4]octan-5-yl)-2-fluoro-N-(1-methyl-1H-pyrazol-3-yl)benzamide] | No (Agonist defined as a compound whose Emax in the ARVP16 DNA Binding Assay (Agonist mode) is >20x DMSO control) | > 1000
8 | N#Cc1ncc(N2C(=O)C3(CCC3)N(c3ccc(F)c(C(=O)NCCc4ccccn4)c3)C2=S)cc1C(F)(F)F [Compound 239, 5-(7-(6-Cyano-5-(trifluoromethyl)pyridin-3-yl)-8-oxo-6-thioxo-5,7-diazaspiro[3.4]octan-5-yl)-2-fluoro-N-(2-(pyridin-2-yl)ethyl)benzamide] | No (Agonist defined as a compound whose Emax in the ARVP16 DNA Binding Assay (Agonist mode) is >20x DMSO control) | > 1000
9 | N#Cc1ncc(N2C(=O)C3(CCC3)N(c3ccc(-c4ccncc4)cc3)C2=S)cc1C(F)(F)F [Compound 18, 5-(8-Oxo-5-(4-(pyridin-4-yl)phenyl)-6-thioxo-5,7-diazaspiro[3.4]octan-7-yl)-3-(trifluoromethyl)picolinonitrile] | Yes (Agonist defined as a compound whose Emax in the ARVP16 DNA Binding Assay (Agonist mode) is >20x DMSO control) | < 1000
10 | Cc1cc(N2C(=O)C3(CCC3)N(c3ccc(C(=O)NCc4cccs4)c(F)c3)C2=S)cnc1C#N [Compound 274, 4-(7-(6-Cyano-5-methylpyridin-3-yl)-8-oxo-6-thioxo-5,7-diazaspiro[3.4]octan-5-yl)-2-fluoro-N-(thiophen-2-ylmethyl)benzamide] | No (Agonist defined as a compound whose Emax in the ARVP16 DNA Binding Assay (Agonist mode) is >20x DMSO control) | < 1000
11 | Cc1ccc(CN2C(=S)N(c3cnc(C#N)c(C(F)(F)F)c3)C(=O)C23CCC3)cc1 [Compound 84, 5-(5-(4-Methylbenzyl)-8-oxo-6-thioxo-5,7-diazaspiro[3.4]octan-7-yl)-3-(trifluoromethyl)picolinonitrile] | Yes (Agonist defined as a compound whose Emax in the ARVP16 DNA Binding Assay (Agonist mode) is >20x DMSO control) | < 1000
12 | N#Cc1ncc(N2C(=O)C3(CCC3)N(c3ccc(OCCCCSCCCC(F)(F)C(F)(F)F)c(F)c3)C2=S)cc1C(F)(F)F [Compound 151, 5-(5-(3-Fluoro-4-(4-((4,4,5,5,5-pentafluoropentyl)thio)butoxy)phenyl)-8-oxo-6-thioxo-5,7-diazaspiro[3.4]octan-7-yl)-3-(trifluoromethyl)picolinonitrile] | No (Agonist defined as a compound whose Emax in the ARVP16 DNA Binding Assay (Agonist mode) is >20x DMSO control) | > 1000
13 | Cc1ccc(N2C(=S)N(c3cnc(C#N)c(C)c3)C(=O)C23CCC3)cc1 [Compound 31, 3-Methyl-5-(8-oxo-6-thioxo-5-(p-tolyl)-5,7-diazpiro[3.4]octan-7-yl)picolinonitrile] | No (Agonist defined as a compound whose Emax in the ARVP16 DNA Binding Assay (Agonist mode) is >20x DMSO control) | < 1000
14 | N#Cc1ncc(N2C(=O)C3(CCC3)N(c3ccc(C(=O)NCCCN4CCC(F)(F)C4)c(F)c3)C2=S)cc1C(F)(F)F [Compound 313, 4-(7-(6-Cyano-5-(trifluoromethyl)pyridin-3-yl)-8-oxo-6-thioxo-5,7-diazaspiro[3.4]octan-5-yl)-N-(3-(3,3-difluoropyrrolidin-1-yl)propyl)-2-fluorobenzamide] | No (Agonist defined as a compound whose Emax in the ARVP16 DNA Binding Assay (Agonist mode) is >20x DMSO control) | < 1000
15 | CNC(=O)c1ccc(N2C(=S)N(c3cnc(C#N)c(C(F)(F)F)c3)C(=O)C23CCC3)c(F)c1 [Compound 89, 4-(7-(6-Cyano-5-(trifluoromethyl)pyridin-3-yl)-8-oxo-6-thioxo-5,7-diazaspiro[3.4]octan-5-yl)-3-fluoro-N-methylbenzamide] | No (Agonist defined as a compound whose Emax in the ARVP16 DNA Binding Assay (Agonist mode) is >20x DMSO control) | < 1000
16 | COc1ccc(N2C(=S)N(c3cnc(C#N)c(C(F)(F)F)c3)C(=O)C23CCC3)cc1F [Compound 203, 5-(5-(3-Fluoro-4-methoxyphenyl)-8-oxo-6-thioxo-5,7-diazaspiro[3.4]octan-7-yl)-3-(trifluoromethyl)picolinonitrile] | No (Agonist defined as a compound whose Emax in the ARVP16 DNA Binding Assay (Agonist mode) is >20x DMSO control) | < 1000
17 | N#Cc1ncc(N2C(=O)C3(CCC3)N(c3ccc(OC(F)(F)F)cc3)C2=S)cc1C(F)(F)F [Compound 44, 5-(8-Oxo-6-thioxo-5-(4-(trifluoromethoxy)phenyl)-5,7-diazaspiro[3.4]octan-7-yl)-3-(trifluoromethyl)picolinonitrile] | No (Agonist defined as a compound whose Emax in the ARVP16 DNA Binding Assay (Agonist mode) is >20x DMSO control) | < 1000
18 | CNC(=O)c1ccc(N2C(=S)N(c3cnc(C#N)c(C)c3)C(=O)C23CCCC3)cc1F [Compound 6, 4-(3-(6-Cyano-5-methylpyridin-3-yl)-4-oxo-2-thioxo-1,3-diazaspiro[4.4]nonan-1-yl)-2-fluoro-N-methylbenzamide] | No (Agonist defined as a compound whose Emax in the ARVP16 DNA Binding Assay (Agonist mode) is >20x DMSO control) | < 1000
19 | N#Cc1ncc(N2C(=O)C3(CCC3)N(c3ccc(C(=O)NCc4ccco4)c(F)c3)C2=S)cc1C(F)(F)F [Compound 266, 4-(7-(6-Cyano-5-(trifluoromethyl)pyridin-3-yl)-8-oxo-6-thioxo-5,7-diazaspiro[3.4]octan-5-yl)-2-fluoro-N-(furan-2-ylmethyl)benzamide] | No (Agonist defined as a compound whose Emax in the ARVP16 DNA Binding Assay (Agonist mode) is >20x DMSO control) | < 1000
20 | N#Cc1ncc(N2C(=O)C3(CCC3)N(c3ccc(C(=O)NCC4CCCC4)c(F)c3)C2=S)cc1C(F)(F)F [Compound 283, 4-(7-(6-Cyano-5-(trifluoromethyl)pyridin-3-yl)-8-oxo-6-thioxo-5,7-diazaspiro[3.4]octan-5-yl)-N-(cyclopentylmethyl)-2-fluorobenzamide] | No (Agonist defined as a compound whose Emax in the ARVP16 DNA Binding Assay (Agonist mode) is >20x DMSO control) | < 1000
